Target: T1, W741C type mutant AR (Homo sapiens, UniProt P10275, DUP77-80/W742C)
T1 construct: expressed in transfected cells; host or cells: Cos-7
Test: Antagonist screening: inhibition of DHT-induced W741C mutant AR transcription activity (luciferase co-transfection)
Format: cell-based
Conditions: 40 nM DHT + 10 μM Compound A
Text: FIG. 4 is a drawing showing the antagonistic action of Compound A on a W741C type mutant AR. […] Mean±standard error, n=16 for the only-DHT addition group and n=4 for the DHT+Compound A addition group.

T1 sequence (P10275 with tags, fused parts or gaps DUP77-80/W742C): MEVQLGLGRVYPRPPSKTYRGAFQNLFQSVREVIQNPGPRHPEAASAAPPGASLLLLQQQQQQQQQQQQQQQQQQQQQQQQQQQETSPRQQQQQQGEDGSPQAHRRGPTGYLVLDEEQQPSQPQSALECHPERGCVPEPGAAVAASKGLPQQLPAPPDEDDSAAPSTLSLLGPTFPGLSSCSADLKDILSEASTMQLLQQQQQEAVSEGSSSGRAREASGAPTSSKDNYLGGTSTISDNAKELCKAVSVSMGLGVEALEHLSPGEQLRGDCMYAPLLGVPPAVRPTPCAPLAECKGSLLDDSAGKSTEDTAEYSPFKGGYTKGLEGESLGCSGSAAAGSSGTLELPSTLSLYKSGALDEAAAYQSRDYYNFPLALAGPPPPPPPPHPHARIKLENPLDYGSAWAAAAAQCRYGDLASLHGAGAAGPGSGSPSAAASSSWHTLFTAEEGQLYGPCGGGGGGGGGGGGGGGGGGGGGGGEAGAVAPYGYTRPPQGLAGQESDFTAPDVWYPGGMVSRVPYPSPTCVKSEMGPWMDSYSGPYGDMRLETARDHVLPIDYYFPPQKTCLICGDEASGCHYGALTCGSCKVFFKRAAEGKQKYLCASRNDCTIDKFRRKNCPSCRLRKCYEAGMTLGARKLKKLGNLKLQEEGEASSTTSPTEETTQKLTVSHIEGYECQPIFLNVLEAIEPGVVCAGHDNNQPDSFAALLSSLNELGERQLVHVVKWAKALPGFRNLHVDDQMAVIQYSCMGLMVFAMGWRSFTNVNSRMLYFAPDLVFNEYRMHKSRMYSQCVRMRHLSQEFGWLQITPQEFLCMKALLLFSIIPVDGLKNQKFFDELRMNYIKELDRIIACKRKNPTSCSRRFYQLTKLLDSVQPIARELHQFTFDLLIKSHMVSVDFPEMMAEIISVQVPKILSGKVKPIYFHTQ

CCOC(=O)c1c(C)[nH]c(C)c1-c1ccc([N+](=O)[O-])cc1 [Compound A, ethyl 2,5-dimethyl-4-(4-nitrophenyl)-1H-pyrrole-3-carboxylate]
action on W741C type mutant AR transcription activity of DHT: antagonist action
